Test results reported in patent US20260250318A1, “COMPOSITIONS AND METHODS FOR CROSSING THE BLOOD BRAIN BARRIER” (VOYAGER THERAPEUTICS, INC., priority 2022, published 2026).

Tests used:
Conditions in all cases: synthetic library passage 3, intravenous, relative to wild-type AAV9
[1] = system: brain, spinal cord, and DRG of the NHPs; assay: NGS fold enrichment of synthetic library (passage 3) in NHPs, first cross-species screen; type: in vivo, cynomolgus macaques (Macaca fascicularis)
How it was run: (§1)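 Passage-3 synthetic capsid library given intravenously […] to NHPs (2-4 years) and BALB/c or C57Bl/6 mice (n=3, 6-8 weeks). After e.g. 28 days, tissue RNA was RT-PCR amplified and NGS-sequenced; values are fold enrichment of each variant relative to wild-type AAV9.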

brain [2] = assay: NGS fold enrichment of synthetic library (passage 3) in BALB/c mice, first cross-species screen; type: in vivo
How it was run: as §1

brain [3] = assay: NGS fold enrichment of synthetic library (passage 3) in C57Bl/6 mice, first cross-species screen; type: in vivo
How it was run: as §1

[4] = RNA from spinal cord of NHPs, NGS
[5] = RNA from brain of BALB/c mice, NGS
[6] = RNA from brain of C57Bl/6 mice, NGS

Sequence	Fold enrichment over AAV9 in the brain of NHPs ([1]; RNA NGS, brain of NHPs) [fold]	Fold enrichment over AAV9 in the spinal cord of NHPs ([1]; RNA NGS, spinal cord of NHPs) [fold]	Fold enrichment over AAV9 in the brain of Mice (BALB/c) (brain [2]; RNA NGS, brain of BALB/c mice) [fold]	Fold enrichment over AAV9 in the brain of Mice (C57Bl/6) (brain [3]; RNA NGS, brain of C57Bl/6 mice) [fold]	Fold enrichment over AAV9 in the brain of NHPs ([1]; RNA from brain of NHPs, NGS) [fold]	Fold enrichment over AAV9 in the spinal cord of NHPs [1, 4] [fold]	Fold enrichment over AAV9 in the brain of Mice (BALB/c) (brain [2]; [5]) [fold]	Fold enrichment over AAV9 in the brain of Mice (C57Bl/6) (brain [3]; [6]) [fold]
GNIAGSVSGQNQQT	2.849	1.187	0.257	0.446	–	–	–	–
GNILHATSGQNQQT	2.136	0.125	0.424	1.159	–	–	–	–
GNIQWQGSGQNQQT	2.468	6.266	0.837	1.182	–	–	–	–
GNRDRPSSGQNQQT	–	–	–	–	1.239	3.947	0.178	0.298
GNSMERTSGQNQQT	2.221	4.177	0.935	1.047	–	–	–	–
GNSQVKVSGQNQQT	–	–	–	–	1.158	4.930	0.728	1.422
GNSSMMGSGQNQQT	–	–	–	–	1.239	3.856	0.364	0.656
GNVTTQKSGQNQQT	1.122	2.546	0.922	1.215	–	–	–	–
GNYLHQASGQNQQT	1.635	1.454	0.181	0.816	–	–	–	–
GPAQHGTSGQNQQT	–	–	–	–	1.407	0.866	0.615	1.030
GPASLPISGQNQQT	–	–	–	–	1.386	9.008	0.155	0.312
GPDRIGSSGQNQQT	–	–	–	–	1.308	0.426	0.342	0.654
GPFGMPSSGQNQQT	2.260	2.700	0.560	0.727	–	–	–	–
GPGLGSHSGQNQQT	1.906	14.563	1.195	0.880	–	–	–	–
GPGLPNHSGQNQQT	2.486	1.992	0.659	1.197	–	–	–	–
GPGLSGHSGQNQQT	1.571	1.603	1.297	1.154	–	–	–	–

Sequence	Fold enrichment over AAV9 in the brain of NHPs ([1]; RNA NGS, brain of NHPs) [fold]	Fold enrichment over AAV9 in the spinal cord of NHPs ([1]; RNA NGS, spinal cord of NHPs) [fold]	Fold enrichment over AAV9 in the brain of Mice (BALB/c) (brain [2]; RNA NGS, brain of BALB/c mice) [fold]	Fold enrichment over AAV9 in the brain of Mice (C57Bl/6) (brain [3]; RNA NGS, brain of C57Bl/6 mice) [fold]	Fold enrichment over AAV9 in the brain of NHPs ([1]; RNA from brain of NHPs, NGS) [fold]	Fold enrichment over AAV9 in the spinal cord of NHPs [1, 4] [fold]	Fold enrichment over AAV9 in the brain of Mice (BALB/c) (brain [2]; [5]) [fold]	Fold enrichment over AAV9 in the brain of Mice (C57Bl/6) (brain [3]; [6]) [fold]
GPGSAHSSGQNQQT	1.785	4.392	0.872	1.099	–	–	–	–
GPLVNASSGQNQQT	1.434	5.239	0.343	0.831	–	–	–	–
GPNSYPVSGQKQQT	–	–	–	–	1.381	4.040	0.834	0.736
GPPQHMTSGQNQQT	1.457	1.547	0.677	0.509	–	–	–	–
GPRLSDQSGQNQQT	1.511	0.364	0.579	0.640	–	–	–	–
GPTNGRSSGQNQQT	2.034	8.903	1.308	0.936	–	–	–	–
GQIVQNPSGQNQQT	3.133	0.406	0.635	1.446	–	–	–	–
GQLGSVGSGQDQQT	–	–	–	–	1.196	0.000	0.437	1.020
GQLVTFTSGQNQQT	–	–	–	–	1.331	11.282	0.294	0.819
GRAPTNLSGQNQQT	1.118	0.687	0.169	0.757	–	–	–	–
GRAVMDHSGQNQQT	2.408	3.209	0.283	0.728	–	–	–	–
GREYGHKSGQNQQT	3.453	0.000	0.959	1.422	–	–	–	–
GRGAVMASGQNQQT	1.072	0.923	0.605	0.783	–	–	–	–
GRGGIPQSGQNQQT	2.352	8.683	1.181	1.639	–	–	–	–
GRGGSMAETQNQQT	1.024	2.853	0.669	0.799	–	–	–	–
